Experimental data from the supplement of paper PMC10307832.

Legend:
Test in all cases: relative viability (nuclei count vs DMSO), 5 days (fraction); higher = more cells survive
[1] = compound: COc1cc(Nc2ncc(F)c(Nc3ccc4c(n3)NC(=O)C(C)(C)O4)n2)cc(OC)c1OC [R406] + Nc1ncn([C@H]2C[C@H](O)[C@@H](CO)O2)c(=O)n1 [Decitabine] (partner 2 µM)
How it was run: (§1)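 Medians of duplicate plates are given as relative viability. That measure is the nuclei count in treated wells divided by the count in vehicle wells. Counts were taken on 4× images of lung cancer cell lines in 1536-well plates, 5 days after pin-tool dosing the day after seeding with one drug alone or a fixed anchor-drug dose plus five library-drug doses (not always all listed) in √10 steps.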

[2] = compound: O=C(/C=C/c1cccnc1)NCCCCC1CCN(C(=O)c2ccccc2)CC1 [Daporinad] + C[C@]1(O)C[C@@H](c2nc(-c3ccc4ccc(-c5ccccc5)nc4c3)c3c(N)nccn32)C1 [Linsitinib] (partner 1 µM)
How it was run: as §1

[3] = compound: COc1cc(Nc2ncc(F)c(Nc3ccc4c(n3)NC(=O)C(C)(C)O4)n2)cc(OC)c1OC [R406] + N=C(N)NC(=N)NCCc1ccccc1 [Phenformin] (partner 250 µM)
How it was run: as §1

[4] = compound: COc1cc(Nc2ncc(F)c(Nc3ccc4c(n3)NC(=O)C(C)(C)O4)n2)cc(OC)c1OC [R406] + CCNC(=O)c1noc(-c2cc(C(C)C)c(O)cc2O)c1-c1ccc(CN2CCOCC2)cc1 [Luminespib] (partner 0.01 µM)
How it was run: as §1

## HCC-366
[1]; first compound 0.08 µM
  relative viability: 0.317
[1]; first compound 0.253 µM
  relative viability: 0.372
[1]; first compound 0.8 µM
  relative viability: 0.36
[1]; first compound 2.53 µM
  relative viability: 0.344
[1]; first compound 8 µM
  relative viability: 0.112
[2]; first compound 0.0005 µM
  relative viability: 0.687
[2]; first compound 0.001581 µM
  relative viability: 0.753
[2]; first compound 0.005 µM
  relative viability: 0.87
[2]; first compound 0.01581 µM
  relative viability: 0.887
[3]; first compound 0.08 µM
  relative viability: 0.627
[3]; first compound 0.253 µM
  relative viability: 0.622
[3]; first compound 0.8 µM
  relative viability: 0.721
[3]; first compound 2.53 µM
  relative viability: 0.521
[3]; first compound 8 µM
  relative viability: 0.254

## HCC-827
[1]; first compound 0.08 µM
  relative viability: 0.323
[1]; first compound 0.253 µM
  relative viability: 0.412
[1]; first compound 0.8 µM
  relative viability: 0.401
[1]; first compound 2.53 µM
  relative viability: 0.219
[1]; first compound 8 µM
  relative viability: 0.268
[2]; first compound 0.0005 µM
  relative viability: 1
[2]; first compound 0.001581 µM
  relative viability: 0.998
[2]; first compound 0.005 µM
  relative viability: 1.02
[2]; first compound 0.01581 µM
  relative viability: 0.921
[4]; first compound 0.08 µM
  relative viability: 0.772
[4]; first compound 0.253 µM
  relative viability: 0.385
[4]; first compound 0.8 µM
  relative viability: 0.563
[4]; first compound 2.53 µM
  relative viability: 0.334
[4]; first compound 8 µM
  relative viability: 0.195
[3]; first compound 0.08 µM
  relative viability: 0.436
[3]; first compound 0.253 µM
  relative viability: 0.401
[3]; first compound 0.8 µM
  relative viability: 0.439
[3]; first compound 2.53 µM
  relative viability: 0.265
[3]; first compound 8 µM
  relative viability: 0.215

## HOP-62
[1]; first compound 0.08 µM
  relative viability: 0.26
[1]; first compound 0.253 µM
  relative viability: 0.229
[1]; first compound 0.8 µM
  relative viability: 0.22
[1]; first compound 2.53 µM
  relative viability: 0.221
[1]; first compound 8 µM
  relative viability: 0.438
[2]; first compound 0.001581 µM
  relative viability: 0.893
[2]; first compound 0.005 µM
  relative viability: 1.15
[2]; first compound 0.01581 µM
  relative viability: 0.789
[4]; first compound 0.08 µM
  relative viability: 0.858
[4]; first compound 0.253 µM
  relative viability: 1.01
[4]; first compound 0.8 µM
  relative viability: 0.901
[4]; first compound 2.53 µM
  relative viability: 0.95
[4]; first compound 8 µM
  relative viability: 0.947
[3]; first compound 0.08 µM
  relative viability: 0.661
[3]; first compound 0.253 µM
  relative viability: 0.783
[3]; first compound 0.8 µM
  relative viability: 0.631
[3]; first compound 2.53 µM
  relative viability: 0.71
[3]; first compound 8 µM
  relative viability: 0.658

## IA-LM
[2]; first compound 0.0005 µM
  relative viability: 0.531
[2]; first compound 0.001581 µM
  relative viability: 0.866
[2]; first compound 0.005 µM
  relative viability: 0.437
[2]; first compound 0.01581 µM
  relative viability: 0.553

## LC-2-ad
[1]; first compound 0.08 µM
  relative viability: 0.775
[1]; first compound 0.253 µM
  relative viability: 0.776
[1]; first compound 0.8 µM
  relative viability: 0.797
[1]; first compound 2.53 µM
  relative viability: 0.533
[1]; first compound 8 µM
  relative viability: 0.401
[2]; first compound 0.0005 µM
  relative viability: 0.688
[2]; first compound 0.001581 µM
  relative viability: 0.972
[2]; first compound 0.005 µM
  relative viability: 0.877
[2]; first compound 0.01581 µM
  relative viability: 0.83
[4]; first compound 0.08 µM
  relative viability: 0.982
[4]; first compound 0.253 µM
  relative viability: 1.13
[4]; first compound 0.8 µM
  relative viability: 0.916
[4]; first compound 2.53 µM
  relative viability: 0.456
[4]; first compound 8 µM
  relative viability: 0.42
[3]; first compound 0.08 µM
  relative viability: 0.592
[3]; first compound 0.253 µM
  relative viability: 0.561
[3]; first compound 0.8 µM
  relative viability: 0.579
[3]; first compound 2.53 µM
  relative viability: 0.384
[3]; first compound 8 µM
  relative viability: 0.25

## LCLC-97TM1
[1]; first compound 0.08 µM
  relative viability: 0.259
[1]; first compound 0.253 µM
  relative viability: 0.27
[1]; first compound 0.8 µM
  relative viability: 0.247
[1]; first compound 2.53 µM
  relative viability: 0.19
[1]; first compound 8 µM
  relative viability: 0.274
[2]; first compound 0.0005 µM
  relative viability: 0.204
[2]; first compound 0.001581 µM
  relative viability: 0.235
[2]; first compound 0.005 µM
  relative viability: 0.193
[2]; first compound 0.01581 µM
  relative viability: 0.17
[4]; first compound 0.08 µM
  relative viability: 0.771
[4]; first compound 0.253 µM
  relative viability: 0.883
[4]; first compound 0.8 µM
  relative viability: 0.72
[4]; first compound 2.53 µM
  relative viability: 0.571
[4]; first compound 8 µM
  relative viability: 0.291
[3]; first compound 0.08 µM
  relative viability: 0.351
[3]; first compound 0.253 µM
  relative viability: 0.407
[3]; first compound 0.8 µM
  relative viability: 0.379
[3]; first compound 2.53 µM
  relative viability: 0.251
[3]; first compound 8 µM
  relative viability: 0.351

## LCLC-103H
[1]; first compound 0.08 µM
  relative viability: 0.707
[1]; first compound 0.253 µM
  relative viability: 0.712
[1]; first compound 0.8 µM
  relative viability: 0.744
[1]; first compound 2.53 µM
  relative viability: 0.746
[1]; first compound 8 µM
  relative viability: 0.707
[2]; first compound 0.0005 µM
  relative viability: 1.01
[2]; first compound 0.001581 µM
  relative viability: 1.2
[2]; first compound 0.005 µM
  relative viability: 1.16
[2]; first compound 0.01581 µM
  relative viability: 1.21
[4]; first compound 0.08 µM
  relative viability: 0.843
[4]; first compound 0.253 µM
  relative viability: 1.05
[4]; first compound 0.8 µM
  relative viability: 1.23
[4]; first compound 2.53 µM
  relative viability: 0.701
[4]; first compound 8 µM
  relative viability: 0.663
[3]; first compound 0.08 µM
  relative viability: 0.327
[3]; first compound 0.253 µM
  relative viability: 0.345
[3]; first compound 0.8 µM
  relative viability: 0.419
[3]; first compound 2.53 µM
  relative viability: 0.317
[3]; first compound 8 µM
  relative viability: 0.314

## LK-2
[1]; first compound 0.08 µM
  relative viability: 0.227
[1]; first compound 0.253 µM
  relative viability: 0.469
[1]; first compound 0.8 µM
  relative viability: 0.379
[1]; first compound 2.53 µM
  relative viability: 0.23
[1]; first compound 8 µM
  relative viability: 0.21
[2]; first compound 0.0005 µM
  relative viability: 0.665
[2]; first compound 0.001581 µM
  relative viability: 0.648
[2]; first compound 0.005 µM
  relative viability: 0.362
[2]; first compound 0.01581 µM
  relative viability: 0.196
[4]; first compound 0.08 µM
  relative viability: 0.187
[4]; first compound 0.253 µM
  relative viability: 0.198
[4]; first compound 0.8 µM
  relative viability: 0.169
[4]; first compound 2.53 µM
  relative viability: 0.163
[4]; first compound 8 µM
  relative viability: 0.197
[3]; first compound 0.08 µM
  relative viability: 0.385
[3]; first compound 0.253 µM
  relative viability: 0.807
[3]; first compound 0.8 µM
  relative viability: 0.428
[3]; first compound 2.53 µM
  relative viability: 0.181
[3]; first compound 8 µM
  relative viability: 0.105

## LOU-NH91
[1]; first compound 0.08 µM
  relative viability: 0.797
[1]; first compound 0.253 µM
  relative viability: 0.792
[1]; first compound 0.8 µM
  relative viability: 0.779
[1]; first compound 2.53 µM
  relative viability: 0.644
[1]; first compound 8 µM
  relative viability: 0.558
[2]; first compound 0.0005 µM
  relative viability: 0.854
[2]; first compound 0.001581 µM
  relative viability: 1.04
[2]; first compound 0.005 µM
  relative viability: 1.14
[2]; first compound 0.01581 µM
  relative viability: 1.52
[4]; first compound 0.08 µM
  relative viability: 0.329
[4]; first compound 0.253 µM
  relative viability: 0.357
[4]; first compound 0.8 µM
  relative viability: 0.278
[4]; first compound 2.53 µM
  relative viability: 0.297
[4]; first compound 8 µM
  relative viability: 0.272
[3]; first compound 0.08 µM
  relative viability: 0.711
[3]; first compound 0.253 µM
  relative viability: 0.72
[3]; first compound 0.8 µM
  relative viability: 0.713
[3]; first compound 2.53 µM
  relative viability: 0.416
[3]; first compound 8 µM
  relative viability: 0.391

## LU99A
[1]; first compound 0.08 µM
  relative viability: 0.972
[1]; first compound 0.253 µM
  relative viability: 0.87
[1]; first compound 0.8 µM
  relative viability: 0.888
[1]; first compound 2.53 µM
  relative viability: 0.61
[1]; first compound 8 µM
  relative viability: 0.591
[2]; first compound 0.0005 µM
  relative viability: 0.497
[2]; first compound 0.001581 µM
  relative viability: 0.55
[2]; first compound 0.005 µM
  relative viability: 0.604
[2]; first compound 0.01581 µM
  relative viability: 0.572
[4]; first compound 0.08 µM
  relative viability: 0.232
[4]; first compound 0.253 µM
  relative viability: 0.27
[4]; first compound 0.8 µM
  relative viability: 0.244
[4]; first compound 2.53 µM
  relative viability: 0.172
[4]; first compound 8 µM
  relative viability: 0.221
[3]; first compound 0.08 µM
  relative viability: 0.789
[3]; first compound 0.253 µM
  relative viability: 0.99
[3]; first compound 0.8 µM
  relative viability: 0.95
[3]; first compound 2.53 µM
  relative viability: 0.556
[3]; first compound 8 µM
  relative viability: 0.759
